PMC3656107, “Polymorphisms in the F8 Gene and MHC-II Variants as Risk Factors for the Development of Inhibitory Anti-Factor VIII Antibodies during the Treatment of Hemophilia A: A Computational Assessment” (PLoS Computational Biology, 2013)

Key:
MHC-II DRB1*03:01 [1] = target: T1, MHC-II DRB1*03:01 (Homo sapiens, UniProt P01903+P01911, A100K/A102G/A103R/A169T/F55Y/I96L/K41T/L162R/M171V/P40S/Q125H/Q178H/Q39Y/R42S/S66N/T106N/T262R/W38E/Y61H); test: Cell-free REVEAL class II binding assay; details: signal of test peptide as percentage of allele-specific positive control peptide, fluorescence, conformation-specific monoclonal antibody
Procedure, shortened: (§1)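 Test peptides incubated with MHC-II protein; correctly folded complexes then detected with a specific monoclonal antibody giving a fluorescence signal. Each peptide scored quantitatively against that allele's positive control epitope, expressed as a percentage.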

MHC-II DRB1*04:01 [2] = target: T2, MHC-II DRB1*04:01 (Homo sapiens, UniProt P01903+P01911, A100K/A169T/F76Y/I96L/K127E/L162R/M171V/N62H/P40V/Q125Y/R42H/S133A/S149N/S66Y/V115G/V209L/W38E); test: Cell-free REVEAL class II binding assay; details: signal of test peptide as percentage of allele-specific positive control peptide, fluorescence, conformation-specific monoclonal antibody
Procedure, shortened: as §1

MHC-II DRB1*07:01 [3] = target: T3, MHC-II DRB1*07:01 (Homo sapiens, UniProt P01903+P01911, A100R/A102G/A103Q/D57E/D86V/E43K/F76Y/K127E/L162R/M171V/P40G/Q125H/Q99D/R33Q/R42Y/R54Q/S133A/S66F/T210M/V115G/Y107V/Y59L/Y89S); test: Cell-free REVEAL class II binding assay; details: signal of test peptide as percentage of allele-specific positive control peptide, fluorescence, conformation-specific monoclonal antibody
Procedure, shortened: as §1

MHC-II DRB1*11:01 [4] = target: T4, MHC-II DRB1*11:01 (Homo sapiens, UniProt P01903+P01911, A100R/A169T/A87E/I96F/K41T/L162R/M171V/P40S/Q125H/Q178H/Q39Y/Q99D/R42S/S66Y/T262R/V115G/W38E); test: Cell-free REVEAL class II binding assay; details: signal of test peptide as percentage of allele-specific positive control peptide, fluorescence, conformation-specific monoclonal antibody
Procedure, shortened: as §1

MHC-II DRB1*15:01 [5] = target: T5, MHC-II DRB1*15:01 (Homo sapiens, UniProt P01903+P01911); test: Cell-free REVEAL class II binding assay; details: signal of test peptide as percentage of allele-specific positive control peptide, fluorescence, conformation-specific monoclonal antibody
T5 construct: purchased ProImmune
Procedure, shortened: as §1

MHC-II DRB1*15:03 [6] = target: T6, MHC-II DRB1*15:03 (Homo sapiens, UniProt P01903+P01911, Y59H); test: Cell-free REVEAL class II binding assay; details: signal of test peptide as percentage of allele-specific positive control peptide, fluorescence, conformation-specific monoclonal antibody
T6 construct: purchased ProImmune
Procedure, shortened: as §1

MHC-II DRB1*03:01 [7] = target: T1, MHC-II DRB1*03:01; test: Cell-free REVEAL class II stability assay; details: half-life of peptide-MHC-II complex (h, capped at 120) x Binding Score / 100, conformational ELISA
Procedure, shortened: (§2)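 On-rates followed over 96 hr at 10°C and off-rates from dissociating complexes, each sampled at set time points and detected by conformational anti-HLA ELISA, then fitted to one-phase association or dissociation curves to give t1/2. Stability score = half-life × Binding Score / 100; allele-specific positive control peptides.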

MHC-II DRB1*04:01 [8] = target: T2, MHC-II DRB1*04:01; test: Cell-free REVEAL class II stability assay; details: half-life of peptide-MHC-II complex (h, capped at 120) x Binding Score / 100, conformational ELISA
Procedure, shortened: as §2

MHC-II DRB1*07:01 [9] = target: T3, MHC-II DRB1*07:01; test: Cell-free REVEAL class II stability assay; details: half-life of peptide-MHC-II complex (h, capped at 120) x Binding Score / 100, conformational ELISA
Procedure, shortened: as §2

MHC-II DRB1*11:01 [10] = target: T4, MHC-II DRB1*11:01; test: Cell-free REVEAL class II stability assay; details: half-life of peptide-MHC-II complex (h, capped at 120) x Binding Score / 100, conformational ELISA
Procedure, shortened: as §2

MHC-II DRB1*15:01 [11] = target: T5, MHC-II DRB1*15:01; test: Cell-free REVEAL class II stability assay; details: half-life of peptide-MHC-II complex (h, capped at 120) x Binding Score / 100, conformational ELISA
Procedure, shortened: as §2

MHC-II DRB1*15:03 [12] = target: T6, MHC-II DRB1*15:03; test: Cell-free REVEAL class II stability assay; details: half-life of peptide-MHC-II complex (h, capped at 120) x Binding Score / 100, conformational ELISA
Procedure, shortened: as §2

T1 sequence (P01903 26-254 limits assumed, other chains not shown): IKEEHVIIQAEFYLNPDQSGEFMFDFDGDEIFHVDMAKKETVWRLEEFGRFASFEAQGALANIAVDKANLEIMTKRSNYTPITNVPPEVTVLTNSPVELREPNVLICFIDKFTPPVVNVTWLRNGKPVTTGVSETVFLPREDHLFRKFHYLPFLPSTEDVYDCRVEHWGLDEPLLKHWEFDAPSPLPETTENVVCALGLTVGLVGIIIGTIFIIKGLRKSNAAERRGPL
T6 sequence (P01903 26-254, other chains not shown): as the sequence (P01903 26-254 limits assumed, other chains not shown) above
T4 sequence (P01903 26-254 limits assumed, other chains not shown): as above

| Sequence | Binding Score (MHC-II DRB1*03:01 [1]) | Binding Score (MHC-II DRB1*04:01 [2]) | Binding Score (MHC-II DRB1*07:01 [3]) | Binding Score (MHC-II DRB1*11:01 [4]) | Binding Score (MHC-II DRB1*15:01 [5]) | Binding Score (MHC-II DRB1*15:03 [6]) | Stability Index (MHC-II DRB1*03:01 [7]) | Stability Index (MHC-II DRB1*04:01 [8]) | Stability Index (MHC-II DRB1*07:01 [9]) | Stability Index (MHC-II DRB1*11:01 [10]) | Stability Index (MHC-II DRB1*15:01 [11]) | Stability Index (MHC-II DRB1*15:03 [12]) |
| --- | --- | --- | --- | --- | --- | --- | --- | --- | --- | --- | --- | --- |
| PPLLTRYLRIHPQSW [synthetic wild type FVIII 15 mer peptide] | 0.0% | 9.6% | 7.0% | 42.2% | 403.3% | 21.7% | 0.0 | 0.9 | 8.4 | 5.9 | 483.9 | 26.0 |
| PQVNNPKEWLQVDFQ [synthetic wild type FVIII 15 mer peptide] | 0.0% | 0.0% | 0.0% | 0.1% | 0.1% | 0.0% | 0.0 | 0.0 | 0.0 | 0.0 | 0.2 | 0.0 |
| PRCLTRYYSSFVNME [synthetic wild type FVIII 15 mer peptide] | 0.9% | 9.6% | 0.0% | 20.5% | 336.9% | 72.3% | 0.1 | 0.7 | 0.0 | 1.2 | 404.2 | 86.8 |
| PWFAHRTPMPKIQNV [synthetic wild type FVIII 15 mer peptide, region of ns-SNP R776G] | 0.1% | 6.4% | 2.7% | 4.9% | 4.7% | 0.2% | 0.1 | 0.8 | 3.2 | 0.5 | 0.4 | 0.0 |
| QKFSSLYISQFIIMY [synthetic wild type FVIII 15 mer peptide] | 0.5% | 1.9% | 0.0% | 0.4% | 22.9% | 0.0% | 0.1 | 0.2 | 0.0 | 0.0 | 27.5 | 0.0 |
| QKTMKVTGVTTQGVK [synthetic wild type FVIII 15 mer peptide, region of ns-SNP M2238V] | 0.0% | 6.6% | 0.0% | 0.1% | 0.8% | 0.0% | 0.0 | 0.5 | 0.0 | 0.0 | 0.5 | 0.0 |
| RIHPQSWVHQIALRM [synthetic wild type FVIII 15 mer peptide] | 0.0% | 54.3% | 2.1% | 74.9% | 8.3% | 1.4% | 0.0 | 12.6 | 2.6 | 4.5 | 10.0 | 0.1 |
| RQNVEGSYDGAYAPV [synthetic wild type FVIII 15 mer peptide, region of ns-SNP D1241E] | 0.0% | 0.0% | 0.0% | 0.1% | 0.0% | 0.0% | 0.0 | 0.0 | 0.0 | 0.0 | 0.0 | 0.0 |
| RSNAWRPQVNNPKEW [synthetic wild type FVIII 15 mer peptide] | 0.0% | 18.2% | 0.0% | 0.1% | 0.4% | 0.0% | 0.0 | 12.4 | 0.0 | 0.0 | 0.5 | 0.0 |
| SDPRCLTRYYSSFVN [synthetic wild type FVIII 15 mer peptide] | 0.5% | 2.4% | 0.1% | 7.8% | 237.9% | 13.8% | 0.0 | 0.2 | 0.0 | 0.5 | 285.5 | 16.6 |
| SGYTFKHKMVYEDTL [synthetic wild type FVIII 15 mer peptide] | 1.3% | 1.0% | 0.0% | 14.9% | 1.0% | 0.0% | 0.0 | 0.1 | 0.0 | 2.2 | 1.2 | 0.0 |
